In assay [1] the target is full-length Plk1 (Homo sapiens, UniProt P53350). As to the kind of experiment: fluorescence recovery assay, competition of inhibitors with probe 4. Type of assay: binding.
Assay [2] deals with T1, Plk1 (Homo sapiens, UniProt P53350). Put plainly: fluorescence recovery assay, probe binding as a function of Plk1 concentration.
Assay [3] addresses T1, Plk1. The settings on record: read-out: Reported Plk1 IC50 values; cited from earlier work.

This is an account of results in publication PMC7523589 (Analytical methods : advancing methods and applications, 2020).

T1 sequence (P53350 whole entry): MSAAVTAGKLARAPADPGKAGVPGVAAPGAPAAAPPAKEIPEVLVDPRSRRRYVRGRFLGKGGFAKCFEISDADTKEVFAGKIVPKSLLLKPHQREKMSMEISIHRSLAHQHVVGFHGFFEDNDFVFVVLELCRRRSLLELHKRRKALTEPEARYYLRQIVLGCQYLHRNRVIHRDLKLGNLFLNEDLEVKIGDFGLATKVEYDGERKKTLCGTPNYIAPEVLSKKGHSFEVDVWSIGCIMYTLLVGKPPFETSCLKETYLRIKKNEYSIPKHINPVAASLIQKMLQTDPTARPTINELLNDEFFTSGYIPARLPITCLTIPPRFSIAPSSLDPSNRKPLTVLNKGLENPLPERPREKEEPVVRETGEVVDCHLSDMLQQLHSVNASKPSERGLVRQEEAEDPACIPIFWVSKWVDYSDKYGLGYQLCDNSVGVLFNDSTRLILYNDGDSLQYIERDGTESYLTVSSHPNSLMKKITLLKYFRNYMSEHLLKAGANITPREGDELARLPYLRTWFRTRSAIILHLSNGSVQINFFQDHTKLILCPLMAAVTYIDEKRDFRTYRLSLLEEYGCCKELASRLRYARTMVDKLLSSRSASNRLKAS
Chain of full-length Plk1 (P53350 whole entry): as above

Turning to `CC[C@@H]1C(=O)N(C)c2cnc(Nc3ccc(C(=O)N[C@H]4CC[C@H](N5CCN(CC6CC6)CC5)CC4)cc3OC)nc2N1C(C)C` [BI6727], the concentration for half-maximal inhibition (IC50) in assay [1] was determined as 31 ± 0.67 nM.
For the compound FITC-PEG-Lys(BI2536) [compound 4], the equilibrium dissociation constant (Kd) in assay [2] (10 nM of probe 4) was 32 ± 0.78 nM; in assay [2] (20 nM of probe 4), 33 ± 0.98 nM; in assay [2] (30 nM of probe 4), 32 ± 1.1 nM; in assay [2] (40 nM of probe 4), 38 ± 1.8 nM; in assay [2] (incubation time 15 minutes), 42 ± 1.5 nM; in assay [2] (incubation time 30 minutes), 34 ± 1.1 nM. This compound displayed a Kd in assay [2] (incubation time 60 minutes) of 32 ± 1.5 nM.
Regarding SBE13, the IC50 in assay [3] was 0.2 nM.
